Reference: patent publication US20080095822A1, “Active Substance Delivery System Comprising A Hydrogel Atrix And Microcarriers” (UNIVERSITE DE LIEGE, priority 2004, published 2008)

Assay: release of LNG from PHEMA hydrogel matrix into purified water (HPLC-UV)
Type: physicochemical
Details: LNG directly in matrix, after 10 days, purified water 37° C.

SMILES: C#C[C@]1(O)CC[C@H]2[C@@H]3CCC4=CC(=O)CC[C@@H]4[C@H]3CC[C@@]21CC [LNG, levonorgestrel]
- release rate after stabilisation: around 10 μg/day
